Measurements taken from patent US8003081B2, “Method for improvement of tolerance for therapeutically effective agents delivered by inhalation” (priority 2004, dated 2011).
Read-outs that look alike come from different tables or passages of the source.

Legend:
[1] = Shelf-life and storage stability of lidocaine formulations; type: physicochemical
[2] = tested on: mild to moderate asthma patients; conditions: placebo=0.35
[3] = 100 mg in 2.5 ml of 40 mg/ml solution, PARI LC PLUS nebulizer; cited from earlier work

CCN(CC)CC(=O)Nc1c(C)cccc1C [lidocaine, acetamide 2-(diethylamino)-N-(2,6-dimethylphenyl)]
stable without loss of strength ([1]; 1%, 4% or 10% solution in Blow-Fill-Seal vials with overwrap, room temperature): 9-12 months
shelf-life of the dry form ([1]; dry form): at least 2 years
AQLQ environmental domain, mean change at week 12 from baseline ([2]; 10 mg lidocaine, p=0.012 v. placebo): 2.09
AQLQ environmental domain, mean change at week 12 from baseline ([2]; 40 mg lidocaine, p=0.01 v. placebo): 2.45
duration of oral numbing of lips, tongue and mucosa with impaired gag reflex following inhalation [3]: approximately 15 minutes
